Earlier results, collected in patent publication US20240325431A1, “COMPOSITION FOR PURIFICATION OF BIOFLUIDS” (BEACON MEDCARE (HK) LIMITED, priority 2018, published 2024).

System: plasma protein

Row | SMILES | binding rate to plasma protein
1 | C[C@H]1O[C@@H](O[C@H]2[C@@H](O)C[C@H](O[C@H]3[C@@H](O)C[C@H](O[C@H]4CC[C@@]5(C)[C@H](CC[C@@H]6[C@@H]5CC[C@]5(C)[C@@H](C7=CC(=O)OC7)CC[C@]65O)C4)O[C@@H]3C)O[C@@H]2C)C[C@H](O)[C@@H]1O [digitoxin] | 91%
2 | CN1C(C(=O)Nc2ccccn2)=C(O)c2sccc2S1(=O)=O [tenoxicam] | 99%
